Literature values as cited in patent US20240082222A1, “4-CHLORO-N-[2-[(4-CHLOROPHENYL)METHYL]-3-OXO-1,2,4-THIADIAZOL-5-YL]BENZAMIDE FOR USE IN MEDICINE” (Betagenon AB, priority 2021, published 2024).

Assays:
[1] = 1000 mg/day in suspension, day 28, patients with type-2 diabetes; cited from earlier work
[2] = mice, lumbar disc puncture and postoperative pain models; cited from earlier work

## O=C(Nc1nc(=O)n(Cc2ccc(Cl)cc2)s1)c1ccc(Cl)cc1 [compound of formula I, 4-chloro-N-[2-[(4-chlorophenyl)methyl]-3-oxo-1,2,4-thiadiazol-5-yl]benzamide]
[1]
  mean Cmax: 55 µg/mL
[2]
  treatment of pain (mechanical hypersensitivity): effective at treating pain

## CN(C)C(=N)N=C(N)N [metformin, reference compound]
[2]
  treatment of pain (mechanical hypersensitivity): effective at treating pain
